Molecules are shown by their SMILES. Activity calls are given as the source filed them.

Assay [1] in a line: luciferase reporter signal suppression in cells – H4 neuroglioma cells, luminescence, dose response (AID 1990). The class given is functional, cell-based. A general note: A reporter such as luciferase makes a cellular process visible.
Assay [2] can be described thus: luciferase reporter signal reduction – luminescence, H4-C neuroglioblastoma cells, dose response (AID 2458).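 Note: H4 neuroglioblastoma cells stably carrying a luciferase reporter gene fusion.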 The class given is functional, cell-based.
The subject of assay [3] is BJ. Briefly: BJ-TERT fibroblast viability loss – cell-based, RAS-independent, luminescence, dose response (AID 1933). The class given is functional. To be noted: Homo sapiens.
Assay [4] can be described thus: cells. The class given is functional, cell-based.
Assay [5] is described as follows: Luminescence Cell-Based Dose Response HTS to Identify Inhibitors of 5'UTR Stem-Loop Driven Prion Protein mRNA Translation in H4 Neuroglioblastoma Cells. [Related pubchem assays: 1827 (Project Summary), 1813 (Primary HTS)]. The class given is functional.
The nature of assay [6]: alpha-synuclein stem-loop luciferase translation blockers – H4 neuroglioma cells, luminescence, confirmation (AID 1988). The class given is functional, cell-based.
Assay [7] deals with BJ. Briefly: cells. The class given is functional, cell-based. As to conditions: Homo sapiens.
Assay [8] relates to BJ. Briefly: BJ-TERT-LT-ST fibroblast viability loss – cell-based, RAS-independent, luminescence, dose response (AID 1935).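 Note: BJ fibroblasts immortalized with TERT plus LT and ST oncogenes.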 The class given is functional. To be noted: Homo sapiens.
The nature of assay [9]: DRD fibroblast viability loss – cell-based, non-viral oncogenic, luminescence, dose response (AID 1934). The class given is functional. As to conditions: Homo sapiens.
Assay [10] in a line: alpha-synuclein stem-loop translation blockers – luminescence, H4 neuroglioblastoma cells, dose confirmation, confirmation (AID 2454).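 Note: H4 neuroglioblastoma cells carrying an alpha-synuclein 5'UTR luciferase reporter; potency for inhibition of the luciferase signal.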 The class given is functional, cell-based.
Assay [11] relates to BJ. Briefly: growth inhibition of engineered Ras-driven BJ cells – cell-based, alamar blue fluorescence, cherrypicked samples, dose response (AID 2631).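 Note: confirmatory dose-response assay in RAS-dependent BJ fibroblasts engineered with TERT, LT and ST, with cytotoxicity read by fluorescence.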 As to conditions: Homo sapiens. The class given is functional. Background: Resazurin is reduced to fluorescent resorufin, in cell work by metabolically active cells.
Assay [12] is described as follows: cells. The class given is functional, cell-based. The source holds these as a separate data set.
Assay [13] concerns the target T1, Nuclear receptor subfamily 0 group B member 1 (Homo sapiens, UniProt P51843).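 Note: HEK293T cells transfected with SF-1 and DAX-1 plus StAR promoter luciferase reporter.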
T1 sequence (P51843 whole entry): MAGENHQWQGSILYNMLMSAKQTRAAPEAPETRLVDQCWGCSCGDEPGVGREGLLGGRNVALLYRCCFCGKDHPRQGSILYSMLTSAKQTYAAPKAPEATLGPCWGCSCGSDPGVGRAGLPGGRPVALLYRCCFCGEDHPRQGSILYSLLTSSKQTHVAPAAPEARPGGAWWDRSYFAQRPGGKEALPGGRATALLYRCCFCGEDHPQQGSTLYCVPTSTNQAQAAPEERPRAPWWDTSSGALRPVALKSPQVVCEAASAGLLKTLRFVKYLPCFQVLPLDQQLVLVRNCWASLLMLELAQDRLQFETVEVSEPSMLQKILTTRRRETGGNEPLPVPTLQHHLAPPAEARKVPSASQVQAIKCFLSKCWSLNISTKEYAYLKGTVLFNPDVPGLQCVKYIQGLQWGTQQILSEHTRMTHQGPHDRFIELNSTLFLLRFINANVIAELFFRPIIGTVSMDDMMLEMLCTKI
The class given is functional, cell-based.

In a further assay the target is Paired box protein Pax-8 (Homo sapiens, UniProt Q06710). Briefly: PAX8 transcriptional activity inhibition in RMG-I – RMG-I cells, luciferase, cherry-pick, dose response (AID 687027).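 Note: luciferase reporter driven by Pax8 target thyroperoxidase promoter measured by SteadyGlo luminescence.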 The class given is functional, cell-based.
The target in assay [14] is DNA dC->dU-editing enzyme APOBEC-3G (Homo sapiens, UniProt Q9HC16). Briefly: inhibition of APOBEC3G ssDNA deamination – biochemical, fluorescence, single-stranded DNA substrate, SAR follow-up (AID 602136). The class given is functional. As to conditions: read-out: IC50_Mean.
The target of assay [15] is DNA dC->dU-editing enzyme APOBEC-3A (Homo sapiens, UniProt P31941). Briefly: SAR analysis of small molecule inhibitors of APOBEC3A DNA Deaminase via a fluorescence-based single-stranded DNA deaminase assay. The class given is functional. As to conditions: read-out: IC50_Mean.
A further assay addresses T2, Caspase-3 (Homo sapiens, UniProt P42574).
T2 sequence (P42574 whole entry): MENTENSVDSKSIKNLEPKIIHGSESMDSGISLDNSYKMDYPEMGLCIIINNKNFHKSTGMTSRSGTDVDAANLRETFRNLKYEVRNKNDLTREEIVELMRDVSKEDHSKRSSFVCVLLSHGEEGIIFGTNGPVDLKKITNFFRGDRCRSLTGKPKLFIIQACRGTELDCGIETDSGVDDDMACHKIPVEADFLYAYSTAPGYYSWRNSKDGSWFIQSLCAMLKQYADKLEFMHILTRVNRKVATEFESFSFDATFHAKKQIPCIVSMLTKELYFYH
The class given is functional.

The target in assay [16] is T3, Sentrin-specific protease 7 (Homo sapiens, UniProt Q9BQF6).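 Note: Luminescence-based dose-response confirmation of ultra-high-throughput screening hits, measuring inhibition of SENP7.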
T3 sequence (Q9BQF6 whole entry): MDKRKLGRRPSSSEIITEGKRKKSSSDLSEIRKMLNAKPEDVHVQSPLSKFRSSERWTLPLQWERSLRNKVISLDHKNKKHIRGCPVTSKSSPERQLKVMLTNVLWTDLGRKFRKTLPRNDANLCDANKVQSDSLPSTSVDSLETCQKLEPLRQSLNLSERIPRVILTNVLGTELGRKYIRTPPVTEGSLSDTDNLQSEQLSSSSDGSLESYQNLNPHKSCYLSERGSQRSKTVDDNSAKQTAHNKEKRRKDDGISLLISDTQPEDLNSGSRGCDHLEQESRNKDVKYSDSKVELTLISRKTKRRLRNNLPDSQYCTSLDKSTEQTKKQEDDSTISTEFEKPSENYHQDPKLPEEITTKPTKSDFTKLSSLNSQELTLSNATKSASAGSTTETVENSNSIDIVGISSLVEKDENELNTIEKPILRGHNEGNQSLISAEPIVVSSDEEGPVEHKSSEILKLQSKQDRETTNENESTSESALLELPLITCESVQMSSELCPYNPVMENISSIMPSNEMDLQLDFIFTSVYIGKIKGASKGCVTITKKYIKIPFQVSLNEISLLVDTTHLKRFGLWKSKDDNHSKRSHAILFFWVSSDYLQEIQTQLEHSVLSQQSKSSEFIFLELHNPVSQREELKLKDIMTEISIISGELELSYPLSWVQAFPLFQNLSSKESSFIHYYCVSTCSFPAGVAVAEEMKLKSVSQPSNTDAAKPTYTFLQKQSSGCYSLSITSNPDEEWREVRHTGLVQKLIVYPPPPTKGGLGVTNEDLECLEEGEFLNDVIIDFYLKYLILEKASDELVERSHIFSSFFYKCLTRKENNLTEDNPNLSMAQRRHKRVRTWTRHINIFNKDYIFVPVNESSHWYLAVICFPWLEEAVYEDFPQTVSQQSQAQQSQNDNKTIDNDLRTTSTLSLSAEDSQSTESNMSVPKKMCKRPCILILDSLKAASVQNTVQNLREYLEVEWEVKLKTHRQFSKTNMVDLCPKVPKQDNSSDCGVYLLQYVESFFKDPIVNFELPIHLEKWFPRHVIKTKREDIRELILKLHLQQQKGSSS
The class given is functional.

Assay [17] concerns the target T4, Sentrin-specific protease 6 (Homo sapiens, UniProt Q9GZR1).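 Note: Luminescence-based dose-response confirmatory assay of SENP6 inhibition, following up an ultra-high-throughput screen.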
T4 sequence (Q9GZR1 whole entry): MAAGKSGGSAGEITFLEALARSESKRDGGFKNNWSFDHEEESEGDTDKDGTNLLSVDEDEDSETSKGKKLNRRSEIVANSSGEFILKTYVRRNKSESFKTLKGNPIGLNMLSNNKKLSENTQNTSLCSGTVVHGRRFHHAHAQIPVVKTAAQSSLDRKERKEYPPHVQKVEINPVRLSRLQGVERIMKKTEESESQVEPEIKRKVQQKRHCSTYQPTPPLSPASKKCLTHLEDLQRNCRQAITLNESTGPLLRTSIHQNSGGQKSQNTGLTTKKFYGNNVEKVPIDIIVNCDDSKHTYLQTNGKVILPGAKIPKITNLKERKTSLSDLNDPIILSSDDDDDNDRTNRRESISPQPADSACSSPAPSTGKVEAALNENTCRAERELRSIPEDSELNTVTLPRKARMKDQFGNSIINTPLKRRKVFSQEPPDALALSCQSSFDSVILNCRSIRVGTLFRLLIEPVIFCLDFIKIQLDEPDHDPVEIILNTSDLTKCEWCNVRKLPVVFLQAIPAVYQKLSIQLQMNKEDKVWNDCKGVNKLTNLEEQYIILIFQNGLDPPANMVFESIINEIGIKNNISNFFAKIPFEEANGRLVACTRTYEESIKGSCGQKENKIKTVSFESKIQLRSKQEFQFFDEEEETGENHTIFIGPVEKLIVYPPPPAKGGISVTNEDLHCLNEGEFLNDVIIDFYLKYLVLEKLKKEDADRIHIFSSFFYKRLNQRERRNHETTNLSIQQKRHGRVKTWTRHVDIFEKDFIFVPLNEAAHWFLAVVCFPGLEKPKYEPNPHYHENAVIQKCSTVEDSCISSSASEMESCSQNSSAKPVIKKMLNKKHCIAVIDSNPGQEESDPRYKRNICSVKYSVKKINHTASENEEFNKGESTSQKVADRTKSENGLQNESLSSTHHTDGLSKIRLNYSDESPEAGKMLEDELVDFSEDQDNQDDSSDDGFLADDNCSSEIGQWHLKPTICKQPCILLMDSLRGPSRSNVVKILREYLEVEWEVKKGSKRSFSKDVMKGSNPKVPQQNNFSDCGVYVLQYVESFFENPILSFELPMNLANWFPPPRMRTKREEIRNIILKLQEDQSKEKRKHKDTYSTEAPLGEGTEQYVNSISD
The class given is functional.

The target in assay [18] is T5, Sentrin-specific protease 8 (Homo sapiens, UniProt Q96LD8).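 Note: luminescence read-out of SENP8 inhibition, dose-response confirmation following an ultra-high-throughput screen.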
T5 sequence (Q96LD8 whole entry): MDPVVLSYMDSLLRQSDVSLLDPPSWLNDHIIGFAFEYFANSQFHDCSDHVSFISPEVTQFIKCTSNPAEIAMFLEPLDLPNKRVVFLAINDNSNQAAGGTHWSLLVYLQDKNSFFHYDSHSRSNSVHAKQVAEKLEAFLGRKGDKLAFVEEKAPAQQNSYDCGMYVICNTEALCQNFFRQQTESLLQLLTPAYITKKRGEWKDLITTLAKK
The class given is functional.

Assay [19] deals with Luciferin 4-monooxygenase (Photinus pyralis, UniProt P08659). Briefly: inhibition of purified Photinus pyralis luciferase – biochemical, luminescence, dose response (AID 1891).
Assay [20] is described as follows: Luminescence Cell-Based Dose Confirmation HTS to Identify Inhibitors of Platelet Dense Granule Release. [Related pubchem assays: 1663 (Primary HTS), 1678 (Summary of Project)]. The class given is functional.
Assay [21] in a line: ADP-Glo luciferase signal interference – biochemical, luminescence, cherry-picked samples, set 2, artefact control for CDK5 inhibitor project, dose response (AID 504546). The class given is functional, cell-based. Background: In ADP-Glo the light output rises with the ADP produced.
The target of assay [22] is Cyclin-dependent kinase 5/CDK5 activator 1 (Homo sapiens, UniProt Q00535). Briefly: blockade of human CDK5 activity – biochemical, cherry-picked samples, set 2, dose response (AID 504545).
Assay [23] concerns the target Dual specificity tyrosine-phosphorylation-regulated kinase 1A (Rattus norvegicus, UniProt Q63470). The class given is biochemical, Homo sapiens.

Chain of DNA dC->dU-editing enzyme APOBEC-3A (P31941 whole entry): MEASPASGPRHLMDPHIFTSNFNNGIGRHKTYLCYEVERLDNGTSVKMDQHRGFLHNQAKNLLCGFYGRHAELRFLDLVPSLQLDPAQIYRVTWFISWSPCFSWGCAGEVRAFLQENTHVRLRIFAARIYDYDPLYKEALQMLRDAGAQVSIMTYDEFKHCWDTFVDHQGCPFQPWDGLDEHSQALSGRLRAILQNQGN
Chain of DNA dC->dU-editing enzyme APOBEC-3G (Q9HC16 whole entry): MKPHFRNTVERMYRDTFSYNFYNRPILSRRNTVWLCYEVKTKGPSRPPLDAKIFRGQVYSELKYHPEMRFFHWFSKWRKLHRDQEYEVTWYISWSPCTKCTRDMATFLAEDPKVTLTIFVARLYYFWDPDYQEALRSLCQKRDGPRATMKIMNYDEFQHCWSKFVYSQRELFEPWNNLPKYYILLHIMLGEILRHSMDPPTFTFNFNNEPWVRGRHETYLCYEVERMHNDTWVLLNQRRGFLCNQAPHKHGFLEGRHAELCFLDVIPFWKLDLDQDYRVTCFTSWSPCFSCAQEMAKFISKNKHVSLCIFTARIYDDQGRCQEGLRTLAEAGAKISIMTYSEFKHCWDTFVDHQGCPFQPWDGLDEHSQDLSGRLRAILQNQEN
Chain of Cyclin-dependent kinase 5/CDK5 activator 1 (Q00535 whole entry): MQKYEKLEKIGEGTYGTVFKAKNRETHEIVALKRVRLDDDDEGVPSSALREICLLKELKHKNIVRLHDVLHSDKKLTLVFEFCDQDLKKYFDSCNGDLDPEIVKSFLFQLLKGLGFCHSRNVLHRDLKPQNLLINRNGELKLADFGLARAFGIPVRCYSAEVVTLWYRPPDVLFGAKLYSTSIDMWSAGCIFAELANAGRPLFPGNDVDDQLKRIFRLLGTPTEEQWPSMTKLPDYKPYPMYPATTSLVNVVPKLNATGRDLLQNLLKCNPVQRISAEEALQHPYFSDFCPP
Chain of Cyclin-dependent kinase 5/CDK5 activator 1 (Q15078 whole entry, further chain): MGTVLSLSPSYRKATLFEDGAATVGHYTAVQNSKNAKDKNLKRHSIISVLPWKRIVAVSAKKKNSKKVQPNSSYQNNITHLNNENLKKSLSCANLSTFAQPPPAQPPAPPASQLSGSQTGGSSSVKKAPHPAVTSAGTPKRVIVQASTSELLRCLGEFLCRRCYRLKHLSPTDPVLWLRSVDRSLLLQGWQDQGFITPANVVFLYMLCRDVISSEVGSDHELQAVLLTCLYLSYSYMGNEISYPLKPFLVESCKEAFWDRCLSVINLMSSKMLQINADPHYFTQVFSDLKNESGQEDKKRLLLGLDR
Chain of Luciferin 4-monooxygenase (P08659 whole entry): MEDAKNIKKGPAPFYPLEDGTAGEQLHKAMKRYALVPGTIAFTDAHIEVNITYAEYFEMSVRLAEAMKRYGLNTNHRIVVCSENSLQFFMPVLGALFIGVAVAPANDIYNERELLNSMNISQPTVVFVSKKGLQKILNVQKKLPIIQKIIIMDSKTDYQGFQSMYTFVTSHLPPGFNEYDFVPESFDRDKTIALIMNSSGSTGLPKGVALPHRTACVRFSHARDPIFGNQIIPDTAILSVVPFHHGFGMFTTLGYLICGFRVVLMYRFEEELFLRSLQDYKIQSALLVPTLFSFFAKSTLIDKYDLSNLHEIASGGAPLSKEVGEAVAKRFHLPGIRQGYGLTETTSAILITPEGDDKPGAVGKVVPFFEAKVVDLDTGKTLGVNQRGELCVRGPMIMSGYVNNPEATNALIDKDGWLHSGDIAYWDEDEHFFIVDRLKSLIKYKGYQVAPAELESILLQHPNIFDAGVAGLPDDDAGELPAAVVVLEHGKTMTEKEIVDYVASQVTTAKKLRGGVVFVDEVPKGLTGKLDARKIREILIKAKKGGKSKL
Chain of Paired box protein Pax-8 (Q06710 whole entry): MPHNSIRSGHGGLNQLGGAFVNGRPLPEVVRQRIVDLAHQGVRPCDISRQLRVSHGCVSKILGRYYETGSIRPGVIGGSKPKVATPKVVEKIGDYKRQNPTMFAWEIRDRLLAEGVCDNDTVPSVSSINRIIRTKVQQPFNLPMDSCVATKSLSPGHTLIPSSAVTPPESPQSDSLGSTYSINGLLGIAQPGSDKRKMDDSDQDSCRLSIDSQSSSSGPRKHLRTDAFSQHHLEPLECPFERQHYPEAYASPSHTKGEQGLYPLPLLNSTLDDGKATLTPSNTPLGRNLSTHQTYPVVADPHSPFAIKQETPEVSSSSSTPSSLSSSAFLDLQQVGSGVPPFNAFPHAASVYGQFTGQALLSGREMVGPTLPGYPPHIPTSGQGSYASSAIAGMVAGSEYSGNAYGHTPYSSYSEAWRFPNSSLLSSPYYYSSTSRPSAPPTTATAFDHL

As for `O=C(c1cc([N+](=O)[O-])ccc1N1CCOCC1)N1CCN(c2ccccc2)CC1`, the concentration giving a half-maximal response (EC50) – broadly, the midpoint of the concentration-response curve – was 0.681 µM (active) in assay [1]; 0.501 µM (active) in assay [2]; 0.309 µM (active) with BJ [3]; 0.959 µM (active) in the assay “cells [4]”; < 0.1 µM (active) in assay [5]; < 0.1 µM (active) in assay [6]. Moreover, the EC50 in the assay with BJ [7] is 1.2 µM (inconclusive); in the assay on BJ [8], 0.338 µM (inconclusive); in assay [9], 0.633 µM (inconclusive); in assay [10] it was 0.738 µM (active); with BJ [11], < 0.104 µM (active). For the same compound, the IC50 (in the assay “cells [12]”; in assay [13]) was > 67.5 µM (inactive) throughout. On Paired box protein Pax-8, the concentration at half-maximal activity (AC50) – broadly, the concentration at which the activity in the assay is half-maximal – is 3.76 µM (active).
`Cn1c(SCC(=O)c2ccccc2)nnc1-c1sc2ccccc2c1Cl`: the IC50 in assay [14] and in assay [15] was > 99 µM (inactive) each time.
Regarding `c1cnc2nc(SCc3cn4ccccc4n3)[nH]c2c1`, the IC50 in [14] and in assay [15] was > 99 µM (inactive) throughout.
Take `COc1ccc2nc(NC(=O)c3cccc(OCc4c(C)noc4C)c3)sc2c1`: the IC50 at Caspase-3 was > 100 µM (inactive); in assay [16] it was 3.67 µM (active); in assay [17], 4.78 µM (active); in assay [18], > 100 µM (inactive).
For the compound `O=C(c1ccc2c3n(nc2c1)-c1ccccc1CO3)N1CCOCC1`, the EC50 in the assay on BJ [3] was 4.57 µM (inconclusive); with BJ [7] it was 3.76 µM (active); in assay [19] it was 1.55 µM (active); in [20], 10.8 µM (active); in the assay with BJ [8], 17 µM (active); in assay [9], 5.29 µM (active). The EC50 in the assay with BJ [11] was > 133 µM (inactive). Also, the results for the half-maximal activity concentration (AC50) in [21], in assay [22] and in [23] were 17.7 µM (active), 12.3 µM (active) and 12.6 µM (active), respectively.
With `Cc1cccc(/C=N\N=C\c2cccc(C)c2)c1`, the IC50 at Caspase-3 is 24.6 µM (active); in assay [16] it was 7.09 µM (active); in assay [17], 27.6 µM (active); in assay [18] it was 47 µM (active).
